Laboratory results from patent publication US20250098679A1, “HERBICIDAL PYRIDONE DERIVATIVES” (SYNGENTA CROP PROTECTION AG, priority 2021, published 2025).

Tests used:
Assay type in all cases: in vivo
Conditions in all cases: evaluated after 13 days
[1] = test system: Echinochloa crus-galli (ECHCG); assay: Post-emergence Test, Echinochloa crus-galli (ECHCG); design: key to percentage damage caused to the plant, ECHCG (five-point scale): 5=81-100%, 4=61-80%, 3=41-60%, 2=21-40%, 1=0-20% damage
In short: (§1)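 Application was a spray of acetone/water (50:50) with 0.5% Tween 20 onto pots of test species sown in standard soil. Unless otherwise stated, the rate was 1000 g/ha. After 13 days under glasshouse conditions (24/16 °C, 65% humidity), injury was scored from 1 (0-20%) to 5 (81-100%).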

Setaria faberi (SETFA) [2] = assay: Post-emergence Test, Setaria faberi (SETFA); design: key to percentage damage caused to the plant, SETFA (five-point scale): 5=81-100%, 4=61-80%, 3=41-60%, 2=21-40%, 1=0-20% damage
In short: as §1

Zea mays (ZEAMX) [3] = assay: Pre-emergence Test, Zea mays (ZEAMX)
[4] = test system: Amaranthus retoflexus (AMARE); assay: Post-emergence Test, Amaranthus retoflexus (AMARE); design: key to percentage damage caused to the plant, AMARE (five-point scale): 5=81-100%, 4=61-80%, 3=41-60%, 2=21-40%, 1=0-20% damage
In short: as §1

Zea mays (ZEAMX) [5] = assay: Post-emergence Test, Zea mays (ZEAMX); design: key to percentage damage caused to the plant, ZEAMX (five-point scale): 5=81-100%, 4=61-80%, 3=41-60%, 2=21-40%, 1=0-20% damage
In short: as §1

[6] = test system: Ipomoea hederacea (IPOHE); assay: Pre-emergence Test, Ipomoea hederacea (IPOHE)
[7] = test system: Amaranthus palmeri (AMAPA); assay: Pre-emergence Test, Amaranthus palmeri (AMAPA)
[8] = test system: Echinochloa crus-galli (ECHCG); assay: Pre-emergence Test, Echinochloa crus-galli (ECHCG)
[9] = test system: Ipomoea hederacea (IPOHE); assay: Post-emergence Test, Ipomoea hederacea (IPOHE); design: key to percentage damage caused to the plant, IPOHE (five-point scale): 5=81-100%, 4=61-80%, 3=41-60%, 2=21-40%, 1=0-20% damage
In short: as §1

[10] = test system: Amaranthus palmeri (AMAPA); assay: Post-emergence Test, Amaranthus palmeri (AMAPA); design: key: 5=81-100%, 4=61-80%, 3=41-60%, 2=21-40%, 1=0-20% damage
In short: as §1

[11] = test system: Amaranthus retoflexus (AMARE); assay: Pre-emergence Test, Amaranthus retoflexus (AMARE)
Setaria faberi (SETFA) [12] = assay: Pre-emergence Test, Setaria faberi (SETFA)

Row | Structure (SMILES) | percentage damage caused to the plant, ECHCG (five-point scale) ([1]; 250 g/Ha) | percentage damage caused to the plant, ECHCG (five-point scale) ([1]; 1000 g/ha) | percentage damage caused to the plant, SETFA (five-point scale) (Setaria faberi (SETFA) [2]; 250 g/Ha) | percentage damage caused to the plant, SETFA (five-point scale) (Setaria faberi (SETFA) [2]; 1000 g/ha) | Pre-emergence Test ZEAMX, percentage damage caused to the plant (five-point scale) (Zea mays (ZEAMX) [3]; 1000 g/ha) | percentage damage caused to the plant, AMARE (five-point scale) ([4]; 250 g/Ha) | percentage damage caused to the plant, AMARE (five-point scale) ([4]; 1000 g/ha) | percentage damage caused to the plant, ZEAMX (five-point scale) (Zea mays (ZEAMX) [5]; 250 g/Ha) | percentage damage caused to the plant, ZEAMX (five-point scale) (Zea mays (ZEAMX) [5]; 1000 g/ha) | Pre-emergence Test IPOHE, percentage damage caused to the plant (five-point scale) ([6]; 1000 g/ha) | Pre-emergence Test AMAPA, percentage damage caused to the plant (five-point scale) ([7]; 1000 g/ha) | Pre-emergence Test ECHCG, percentage damage caused to the plant (five-point scale) ([8]; 1000 g/ha) | percentage damage caused to the plant, IPOHE (five-point scale) ([9]; 250 g/Ha) | percentage damage caused to the plant, IPOHE (five-point scale) ([9]; 1000 g/ha) | percentage damage caused to the plant, AMAPA (five-point scale) ([10]; 250 g/Ha) | percentage damage caused to the plant, AMAPA (five-point scale) ([10]; 1000 g/ha) | Pre-emergence Test AMARE, percentage damage caused to the plant (five-point scale) ([11]; 1000 g/ha) | Pre-emergence Test SETFA, percentage damage caused to the plant (five-point scale) (Setaria faberi (SETFA) [12]; 1000 g/ha) | Pre-emergence Test ZEAMX, percentage damage caused to the plant (five-point scale) (Zea mays (ZEAMX) [3]; 250 g/Ha (*)) | Pre-emergence Test IPOHE, percentage damage caused to the plant (five-point scale) ([6]; 250 g/Ha (*)) | further results
1 | CCn1c(Cn2cc(C)cn2)cc(=O)c(C(=O)O)c1-c1ccc(Cl)c(Cl)c1 [Compound 91, 2-(3,4-dichlorophenyl)-1-ethyl-6-[(4-methylpyrazol-1-yl)methyl]-4-oxo-pyridine-3-carboxylic acid] | 3 (3=41-60%) | 1 (1=0-20%) | 0 | 1 (1=0-20%) | 0 | 1 (1=0-20%) | 2 (2=21-40%) | 1 (1=0-20%) | 1 (1=0-20%) | 0 | 1 (1=0-20%) | 0 | 0 | 3 (3=41-60%) | 1 (1=0-20%) | 4 (4=61-80%) | 1 (1=0-20%) | 0 | – | – | –
2 | CCn1c(Cn2nccc2Cl)cc(=O)c(C(=O)O)c1-c1ccc(Cl)c(Cl)c1 [Compound 80, 6-[(5-chloropyrazol-1-yl)methyl]-2-(3,4-dichlorophenyl)-1-ethyl-4-oxo-pyridine-3-carboxylic acid] | 3 (3=41-60%) | 4 (4=61-80%) | 3 (3=41-60%) | 4 (4=61-80%) | 0 | 2 (2=21-40%) | 2 (2=21-40%) | 1 (1=0-20%) | 3 (3=41-60%) | 3 (3=41-60%) | 1 (1=0-20%) | 5 (5=81-100%) | 4 (4=61-80%) | 3 (3=41-60%) | 2 (2=21-40%) | 2 (2=21-40%) | 0 | 5 (5=81-100%) | 0 | 2 (2=21-40%) | Pre-emergence Test AMAPA, percentage damage caused to the plant (five-point scale) ([7]; 250 g/Ha (*)): 1 (1=0-20%); Pre-emergence Test ECHCG, percentage damage caused to the plant (five-point scale) ([8]; 250 g/Ha (*)): 3 (3=41-60%); Pre-emergence Test AMARE, percentage damage caused to the plant (five-point scale) ([11]; 250 g/Ha (*)): 0; Pre-emergence Test SETFA, percentage damage caused to the plant (five-point scale) (Setaria faberi (SETFA) [12]; 250 g/Ha (*)): 4 (4=61-80%)
3 | CCOC(=O)c1c(-c2ccc(Cl)c(Cl)c2)n(CC)c(Cn2ccc(C(F)(F)F)n2)cc1=O [Compound 1, ethyl 2-(3,4-dichlorophenyl)-1-ethyl-4-oxo-6-[[3-(trifluoromethyl)pyrazol-1-yl]methyl]pyridine-3-carboxylate] | 3 (3=41-60%) | 4 (4=61-80%) | 3 (3=41-60%) | 4 (4=61-80%) | 0 | 0 | 1 (1=0-20%) | 1 (1=0-20%) | 3 (3=41-60%) | 0 | 0 | 3 (3=41-60%) | 2 (2=21-40%) | 1 (1=0-20%) | 0 | 1 (1=0-20%) | 0 | 4 (4=61-80%) | 0 | 0 | Pre-emergence Test AMAPA, percentage damage caused to the plant (five-point scale) ([7]; 250 g/Ha (*)): 0; Pre-emergence Test ECHCG, percentage damage caused to the plant (five-point scale) ([8]; 250 g/Ha (*)): 2 (2=21-40%); Pre-emergence Test AMARE, percentage damage caused to the plant (five-point scale) ([11]; 250 g/Ha (*)): 0; Pre-emergence Test SETFA, percentage damage caused to the plant (five-point scale) (Setaria faberi (SETFA) [12]; 250 g/Ha (*)): 4 (4=61-80%)
